Test results from patent US20240082212A1, “USE OF MDMA FOR TREATMENT OF STRESS-RELATED DISORDERS” (priority 2022, published 2024).

Tests used:
Serotonin 5-HT2B = Serotonin 5-HT2B (Homo sapiens, UniProt P41595); assay: Eurofins Panlabs radioligand binding panel, serotonin 5-HT2B; settings: 10 uM
C57BL/6J mice = assay: Head twitch response (HTR); type: in vivo, mouse; settings: 30 minutes after injection
Method: Male C57BL/6J mice at 6-8 weeks of age were purchased from Jackson Laboratories and housed four per cage in a climate and humidity-controlled room in a vivarium at the University of California, San Diego. The room operated on a reverse light cycle (lights on at 1900 h, off at 0700 h) with food and water available ad libitum, except during testing. All testing was performed during 1000 h and 1800 h. After a minimum of 1 week acclimation to the housing facility, mice were anesthetized using a mixture of ketamine (100 mg/kg IP) and xylazine (10 mg/kg IP). Under deep anesthesia, an incision was made in the scalp and a small neodymium magnet (4.57 mm×4.57 mm×2.03 mm) was attached to the cranium using cyanoacrylate and dental cement. After at least a 2-week recovery period, the mouse was removed from the home cage and injected intraperitoneally with the test article or vehicle (0.9% sterile saline). Immediately, the mouse was placed in a glass cylinder surrounded by a magnetometer coil and the head twitch response (HTR) was assessed for 30 minutes (Halberstadt and Geyer, 2013). The output of the coil was recorded using a Powerlab/8SP with LabChart v.7.3.2 (ADInstruments). Coil voltage was amplified, low-pass filtered (2-10 kHz cut-off frequency) to remove interference, digitized and sampled at 20 kHz. Head twitches were identified using a validated technique based on artificial intelligence (Halberstadt, 2020). Events in the recordings were transformed into a visual representation in the time-frequency domain and deep features were extracted using the pretrained convolutional neural network ResNet-50, and the images were subsequently classified using a Support Vector Machine algorithm.
Test articles (R,S-MDA, R(−)-MDA, S-(+)MDA), R,S-MDMA, R(−)-MDMA and S(+)-MDMA) were supplied by the NIDA Drug Supply Program as neat powders. Racemic MDA and MDMA and their enantiomers were dissolved in saline and injected IP at a volume of 5 mL/kg. Each dose was calculated based on the salt form of the compounds. For each treatment condition, six groups of mice (n=5-6/group) were treated with vehicle or the test drug (0.1, 0.3, 1, 3, or 10 mg/kg) and HTR assessed for 30 minutes immediately following injections. To avoid carryover effects, each treatment condition was performed at least seven days apart. Total number of mice used for the experiment was 63.

cortical neurons = assay: Neurite outgrowth in embryonic rat cortical neuron cultures; type: cell-based; settings: any tested concentration (0.001 to 10000 nM), 3 days, vs vehicle
Text: Female Wistar rats of 17 days gestation were killed by cervical dislocation and the fetuses (typically 6 to 8 in number) were removed from the uteri. Fetal brains were placed in ice-cold medium of Leibovitz (L15, Gibco, France). Cortex was dissected and meninges were carefully removed. The cortical neurons were dissociated by trypsinization (trypsin-EDTA, Gibco) in the presence of DNAse I (Roche, France). The reaction was stopped by addition of Dulbecco's Modified Eagle Medium (DMEM; Gibco) with 10% of fetal bovine serum (FBS; Gibco). The suspension was triturated with a 10-ml pipette and a 21-gauge needle syringe and centrifuged. The pellet of dissociated cells was resuspended in a medium consisting of Neurobasal (Gibco) supplemented with 2% B27 supplement (Gibco), 0.5 mM L-Glutamine (Gibco), and an antibiotic-antimycotic mixture. Viable cells were counted in a Neubauer cytometer and cells were seeded in 96-well plates (Costar) precoated with poly-L-lysine at 10,000 cells/well. […] Stock solutions were prepared in sterile water at 10 mM and stored at −20° C. until used. Further dilutions were prepared in culture in the medium on the day of the treatment. 0.1% Sterile water was present in all tested conditions.
The experimental protocol was performed in two independent cultures (i.e., from two different pregnant rats). For each culture, each condition was tested in sextuplet (6 wells per condition per culture for a total of 12 wells per condition). […] After three days of plating and compound treatment (Day 3), cultures were fixed with paraformaldehyde in phosphate buffered saline at 4° C. (PBS, 4%, Sigma). All subsequent steps were performed at room temperature. Cells were successively permeabilized for 30 minutes using 0.1% triton, saturated with PBS containing 3% bovine serum albumin (BSA) and incubated for 1 hour with anti-beta III tubulin antibody (T5168, Sigma). […] Finally, nuclei were stained with 4′-6-diamidino-2-phenylindole (DAPI). After rinsing the cells with PBS, the plate was imaged and neurite networks were examined and analyzed using a High-Content Screening platform (CellInsight CXS, Thermo Scientific) with integrated Photometrics high-resolution fluorescent camera, Olympus objective (10×) and HCS Studio Cell Analysis Software. Approximately 2,000 neurons per well were analyzed using a validated cortex neuron outgrowth algorithm that utilizes parameters optimized for analysis of embryonic rat cortical neuron cultures. The HCS Studio Cell Analysis Software output included values for neurite total count (#), neurite total length (μm) and total number of branch points (#) for each of the 6 wells per culture. The evaluation of neurite outgrowth was performed using the average number of neurites per neuron (#), the average of total neurite length per neuron (μm) and the average number of branch points per neuron (#) across 12 wells. Data also was transformed to percent (%) of the average vehicle control value. Results were expressed as mean (±s.e.m.) of the transformed (% of vehicle control) data. Statistical analyses were performed on transformed percent of the average vehicle control data for each measure for each test article using one-way analysis of variance (Anova, StatView). Where applicable, Dunnett's test was used for multiple pairwise comparisons to the negative control (vehicle) condition. […] The level of significance was set at p value less than or equal to 0.05 (*p<0.05).

Serotonin 5-HT1A = target: T1, Serotonin 5-HT1A (Homo sapiens, UniProt P08908); assay: Eurofins Panlabs radioligand binding panel, serotonin 5-HT1A; settings: 10 uM
T1 sequence (P08908 1-422): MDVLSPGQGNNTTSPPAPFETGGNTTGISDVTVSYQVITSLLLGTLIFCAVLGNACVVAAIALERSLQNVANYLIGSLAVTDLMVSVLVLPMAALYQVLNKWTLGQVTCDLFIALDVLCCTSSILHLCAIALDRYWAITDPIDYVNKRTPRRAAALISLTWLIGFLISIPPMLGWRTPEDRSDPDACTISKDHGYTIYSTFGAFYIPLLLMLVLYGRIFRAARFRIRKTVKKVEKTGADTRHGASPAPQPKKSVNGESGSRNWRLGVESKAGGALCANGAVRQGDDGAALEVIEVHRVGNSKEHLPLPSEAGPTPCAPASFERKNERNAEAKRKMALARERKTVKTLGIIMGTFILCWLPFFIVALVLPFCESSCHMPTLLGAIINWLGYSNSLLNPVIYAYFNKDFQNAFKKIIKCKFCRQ

[1] = Rat plasma pharmacokinetics after cumulative (QID) SC injections; settings: for Cmax: metabolite after QID SC parent (R-MDA after R-MDMA, S-MDA after S-MDMA, total MDA after Rac-MDMA)
Adrenergic α2A = target: T2, Adrenergic α2A (Homo sapiens, UniProt P08913); assay: Eurofins Panlabs radioligand binding panel, adrenergic α2A; settings: read-out: % inhibition of binding or activity
T2 sequence (P08913 1-465): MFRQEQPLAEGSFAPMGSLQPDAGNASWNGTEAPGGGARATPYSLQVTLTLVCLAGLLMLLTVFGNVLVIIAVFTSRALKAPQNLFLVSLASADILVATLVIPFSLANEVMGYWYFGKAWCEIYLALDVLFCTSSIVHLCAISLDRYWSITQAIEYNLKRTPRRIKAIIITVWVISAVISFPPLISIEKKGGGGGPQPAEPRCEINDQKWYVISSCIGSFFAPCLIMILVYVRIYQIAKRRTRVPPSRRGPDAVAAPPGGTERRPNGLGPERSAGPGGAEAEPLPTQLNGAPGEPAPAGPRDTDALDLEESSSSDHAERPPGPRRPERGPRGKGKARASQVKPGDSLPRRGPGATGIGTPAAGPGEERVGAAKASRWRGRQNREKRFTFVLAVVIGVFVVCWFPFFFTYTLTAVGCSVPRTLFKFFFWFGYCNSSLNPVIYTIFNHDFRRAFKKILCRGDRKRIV
Method: Each of the compounds was evaluated for binding to 87 different targets as part of a panel (Eurofins Panlabs, Taiwan, China). Each compound was tested at a single concentration of […]. The panel included mostly G-protein-couple receptors, ion channels, enzymes, transporters and nuclear receptors, expressed in the central nervous system, cardiovascular, respiratory, gastrointestinal and renal systems. A limited number of targets were of pig, rat or guinea pig origin. Targets were expressed in human recombinant cells lines, rat brain or spinal cord, guinea pig brain or pig heart. Methods were adapted from the scientific literature to maximize reliability and reproducibility. Reference standards were run as an integral part of each assay to ensure validity of the results obtained (available online at the eurofins website for the safety screen 87 panel).

[2] = male rat plasma, metabolite after QID SC parent, total 10 mg/kg/day
[3] = male rat plasma, metabolite after QID SC parent, total 20 mg/kg/day

Sequence of Serotonin 5-HT2B (P41595 whole entry): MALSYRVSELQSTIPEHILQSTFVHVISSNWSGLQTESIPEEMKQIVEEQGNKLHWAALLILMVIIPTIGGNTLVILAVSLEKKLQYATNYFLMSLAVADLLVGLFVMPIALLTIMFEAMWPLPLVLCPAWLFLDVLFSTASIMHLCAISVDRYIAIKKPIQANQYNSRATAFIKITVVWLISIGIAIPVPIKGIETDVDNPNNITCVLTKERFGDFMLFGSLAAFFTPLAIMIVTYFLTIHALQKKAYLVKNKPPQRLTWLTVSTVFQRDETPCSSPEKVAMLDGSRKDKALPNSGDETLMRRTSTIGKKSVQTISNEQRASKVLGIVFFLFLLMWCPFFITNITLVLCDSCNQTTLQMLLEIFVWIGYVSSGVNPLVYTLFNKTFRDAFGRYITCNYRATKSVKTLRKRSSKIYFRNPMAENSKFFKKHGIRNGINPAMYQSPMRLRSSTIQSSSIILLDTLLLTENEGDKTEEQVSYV

Q: What does the source list for `C[C@@H](N)Cc1ccc2c(c1)OCO2` [R-MDA, R(−)-MDA]?
A: % inhibition of binding or activity (Serotonin 5-HT2B): 88%; head twitch response (HTR) compared to control (vehicle) (C57BL/6J mice; 1 mg/kg IP): elicited an increase in HTR; head twitch response (HTR) compared to control (vehicle) (C57BL/6J mice; 3 mg/kg IP): elicited an increase in HTR; head twitch response (HTR) compared to control (vehicle) (C57BL/6J mice; 10 mg/kg IP): elicited an increase in HTR; neurite number (#) (cortical neurons): did not significantly alter; neurite total length (μm) (cortical neurons): did not significantly alter; total number of branch points (#) (cortical neurons): did not significantly alter; % inhibition of binding or activity (Serotonin 5-HT1A): 50%; dose dependence of Cmax and AUC0-27 hr ([1]; dose increase from 10 to 20 mg/kg/day of the dosed test article, QID SC): approximately dose proportional manner; Cmax ([1]; male rat plasma, total 10 mg/kg/day): 127 ng/mL; Cmax ([1]; male rat plasma, total 20 mg/kg/day): 272 ng/mL; AUC0-27 hr [1, 2]: 813 ng·h/mL; AUC0-27 hr/Dose [1, 2]: 81.3 *kg*ng/mL/mg; AUCTlast [1, 2]: 716 ng·h/mL; Cmax/Dose [1, 2]: 12.7 kg·ng/mL/mg; Tlast [1, 2]: 11 h; Tmax [1, 2]: 5 h; AUC0-27 hr [1, 3]: 2410 ng·h/mL; AUC0-27 hr/Dose [1, 3]: 121 *kg*ng/mL/mg; AUCTlast [1, 3]: 1810 ng·h/mL; Cmax/Dose [1, 3]: 13.6 kg·ng/mL/mg; T1/2 [1, 3]: 2.67 h; Tlast [1, 3]: 11 h; Tmax [1, 3]: 5 h

Q: For `CC(N)Cc1ccc2c(c1)OCO2` (racemic) [Racemic MDA, 3,4-methylenedioxyamphetamine], which inhibition at 10 µM (Adrenergic α2A) is on record?
A: 53%

Q: What about the inhibition at 10 µM (Serotonin 5-HT2B; read-out: % inhibition of binding or activity) of the same compound?
A: 89%

Q: And the “head twitch response (HTR) compared to control (vehicle)” value (C57BL/6J mice; 3 mg/kg IP)?
A: increased HTR

Q: What about the “neurite number (#)” value (cortical neurons) of the same compound?
A: did not significantly alter

Q: And the “neurite total length (μm)” value (cortical neurons)?
A: did not significantly alter

Q: And the “total number of branch points (#)” value (cortical neurons)?
A: did not significantly alter
